Data on 7 compounds can be found in patent publication US10149885B2, “Method of treatment or prophylaxis of infections of the eye” (STARPHARMA PTY LIMITED, priority 2012, dated 2018).

Converted amounts (≈) assume the structure as drawn. Like-named read-outs stand apart in the source and are kept apart here.

The test system of experiment [1] is Gardnerella vaginalis ATCC 14018 (MMX 4153). In words: Serial passage resistance development, MIC. The settings on record: for MIC: Gardnerella vaginalis. It is filed as cell-based.
In experiment [2] the test system is Mobiluncus curtisii ATCC 35241 (MMX 4145). The experiment in a line: Serial passage resistance development, MIC. Type of experiment: cell-based. The settings on record: for MIC: Mobiluncus curtisii.
The subject of experiment [3] is Lactobacillus acidophilus MMX 5716. The experiment in a line: Serial passage resistance development, MIC. Type of experiment: cell-based. The settings on record: for MIC: Lactobacillus acidophilus.
The test system of experiment [4] is Prevotella bivia MMX 3447. The experiment in a line: Serial passage resistance development, MIC. It is filed as cell-based. The following applies: for MIC: Prevotella bivia.
The next experiment has as its system Adenovirus. The experiment in a line: Plaque reduction neutralization test (NR), positive control, subtype not given. Type of experiment: cell-based. The following applies: unidentified adenovirus. The procedure: (§1) The Plaque reduction neutralization test (NR) is used to quantify the ability of a dendrimer to neutralize/inactivate virus. The dendrimer solution to be tested is diluted and mixed with a viral suspension. This is incubated to allow the dendrimer to react with the virus. This is poured over a confluent monolayer of host cells. The surface of the cell layer is covered in a layer of agar or carboxymethyl cellulose to prevent the virus from spreading. The concentration of plaque forming units can be estimated by the number of plaques (regions of infected cells) formed after a few days. Depending on the virus, the plaque forming units are measured by microscopic observation, fluorescent labelled antibodies or specific dyes that react with infected cells. The concentration of dendrimer to reduce the number of plaques by 50% compared to the dendrimer free virus gives the EC50 value.
Ribivirin was included as a positive control.

The subject of a further experiment is Adeno-5. In words: Plaque reduction neutralization test (NR). The following applies: Adeno-5/NR. It is filed as cell-based, Adenovirus. The procedure: as §1
On the technique in general: Plaque reduction counts the foci of infection that form in a cell layer.

Experiment [5] has as its system Adeno-1. In words: Cytopathic assay (CPE). Type of experiment: cell-based, Adenovirus. The settings on record: Adeno-1/CPE. Here is the method:
For the Cytopathic assay (CPE) Plates of cells were incubated with the respective adenovirus subtype and drug at different drug concentrations. Cells were incubated until a Cytopathic effect was clearly observed in plates where cells and virus were plated without drug. In plates where drug was added, the cytopathic effect was quantified using a light microscope and expressed as 0% (no effect) up to 100% (effect as strong as in the no drug control plates). CPE readings were plotted against the drug concentration and the EC50 value was determined as the drug concentration where 50% CPE was observed.

For experiment [6], the system named is Adeno-1. In words: Plaque reduction neutralization test (NR). Type of experiment: cell-based, Adenovirus. The following applies: Adeno-1/NR. The procedure: as §1
Experiment [7] has as its system Adenovirus 37 (ATCC #VR-929). In words: Adenoviral replication titer reduction, drug added after infection (control protocol). It is filed as cell-based. The settings on record: for Percent reduction of adenoviral replication: Adeno-37, WI-38 cells. From the text:
(§2) Adenovirus subtype 5 (ATCC #VR-5) was used with HeLa cells (ATCC #CCL-2), Adenovirus subtype 8 (ATCC #VR-1640) was used with A549 cells (ATCC #CCL-185), Adenovirus subtype 19 (ATCC #VR-254) was used with Chang C cells (ATCC #CCL-20.2) and Adenovirus 37 (ATCC #VR-929) was used with WI-38 cells (ATCC #CCL-75). Both epithelial and fibroblast cell types were used. The recovered virus was titrated in the susceptible cell lines by performing dilutions at 1/10 to 1/100,000 and addition to cells in plates. When cytopathic effect (CPE) was apparent in the virus control, titration plates were classified as positive or negative for cytopathic effect and based on the dilution of the virus applied to the different plates, the 50% tissue-culture infective dose (TCID50) was calculated using the Spearman-Kärber method (Hubert, J J (1984) Spearman-Karber Method in Bioaasay. Hunt, Dubuque, Iowa, pp 65, 66). The TCID50 establishes the dilution at which 50% of the plates show a cytopathic effect (infection). Comparing the TCID50 for sample without SPL7013 with the TCID50 values for samples with different concentrations of SPL7013 provides a measure of the percent reduction of infection achieved by each concentration of SPL7013. This percent reduction represents the activity of SPL7013 against penetration of cells with adenoviruses. A control substance (cidofovir) was tested alongside SPL7013 at 20 μg/mL, 2 μg/mL, 0.2 μg/mL and 0.02 μg/mL (Gordon Y J, Antiviral Research, 1991, 16(1), 11-16). Because cidofovir acts later in the viral replication cycle, target cells were first infected with 0.1 MOI virus and incubated 60 minutes at 37° C.±2° C. Virus was removed, cidofovir was added at the respective concentrations and cells were incubated until CPE reached its maximum. Cells were then lysed and virus was titrated as described above.

Experiment [8] relates to Adenovirus subtype 19 (ATCC #VR-254). The experiment is described as above. Type of experiment: cell-based. The settings on record: for Percent reduction of adenoviral replication: Adeno-19, Chang C cells.
Source text: as §2

Experiment [9] has as its system Adenovirus subtype 5 (ATCC #VR-5). The description is as above. Type of experiment: cell-based. The settings on record: for Percent reduction of adenoviral replication: Adeno-5, HeLa cells.
Source text: as §2

Experiment [10] deals with Adenovirus subtype 8 (ATCC #VR-1640). The description is as above. It is filed as cell-based. The settings on record: for Percent reduction of adenoviral replication: Adeno-8, A549 cells.
Source text: as §2

A further experiment has as its system Ad5 McEwen. In words: In vivo treatment of adenoviral eye infection, ocular cultures titred by plaque assay. The settings on record: 0.5% cidofovir in saline, 37 μL per eye twice a day, n = 8-10. The arrangement: species or system NZW female rabbits. Here is the method:
Following general anesthesia and corneal scarification, NZW female rabbits were inoculated in each eye with 50 μl of 3.0×10^7 PFU/mL (1.5×10^6 PFU/eye) of Ad5 McEwen. At about 3 hours after inoculation, a swab was taken of the tear film and corneal and conjunctival surfaces into tubes containing 1 mL of outgrowth media, and cultured for adenovirus.
The rabbits were then divided into 3 groups: 3% SPL7013 (n=5), Vehicle (n=5) and 0.5% cidofovir in saline as positive control (n=4). Commencing on day 1, animals were treated in each eye with 37 μL of drug 8 times a day, or 37 μL of control twice a day. Swabs of the tear film and corneal and conjunctival surfaces were taken one hour after treatment.
Ad5 titers were determined on A549 lung carcinoma cell monolayers using a standard plaque assay. The ocular cultures were diluted and inoculated onto A549 monolayers, and the virus adsorbed for 3 hours. Following adsorption, 1 mL of media plus 0.5% methylcellulose was added to each well, and the plates were incubated at 37° C. in a 5% CO2-water vapor atmosphere for 7 days, then stained with 0.5% gentian violet, and plaques were counted.

The mark [11] stands for this setting: ATCC14018, read-out: MIC after serial passage.
[12] abbreviates: ATCC14018, read-out: MIC at baseline.

`CO[C@H]1/C=C/O[C@@]2(C)Oc3c(C)c(O)c4c(O)c(c5c(nc6cc(C)ccn65)c4c3C2=O)NC(=O)/C(C)=C\C=C\[C@H](C)[C@H](O)[C@@H](C)[C@@H](O)[C@@H](C)[C@H](OC(C)=O)[C@@H]1C` [Rifaximin]: the MIC in experiment [1] (setting [11]) came out at 128 µg/mL (≈ 163 µM); in [1] (setting [12]) it was 0.06 µg/mL (≈ 0.0763 µM); in experiment [3] (MMX5716, read-out: MIC after serial passage) it was 64 µg/mL (≈ 81.4 µM); in experiment [3] (MMX5716, read-out: MIC at baseline), 1 µg/mL (≈ 1.27 µM); in experiment [4] (MMX3447, read-out: MIC after serial passage), 0.12 µg/mL (≈ 0.153 µM); in experiment [4] (MMX3447, read-out: MIC at baseline) it was 0.03 µg/mL (≈ 0.0382 µM). In addition, the “Fold increase of MIC” value in experiment [1] (by passage 9) was greater than 2000 fold; in experiment [3] (by passage 9), 64 fold; in experiment [4] (passage number not given) it was 4 fold. Besides, the “Change of MIC during passage (in words)” value in experiment [2] (10 serial passages) was “No apparent increase”.

For the compound `NC(=O)c1ncn([C@@H]2O[C@H](CO)[C@@H](O)[C@H]2O)n1` [Ribavirin], the EC50 in the experiment with Adenovirus came to 10 µg/mL (≈ 40.9 µM).

Turning to [NH3][PAMAM]2[CSNH-3,5-Ph(SO3Na)2]24, the EC50 in the experiment with Adeno-5 turned out to be 150 µg/mL.

Take “[NH3][PAMAM]4NHCSNH-2-naphth-5,7-(SO3Na)2]24”: the EC50 in the experiment on Adeno-1 [5] worked out at 20 µg/mL.

As for “[BHALys][Lys]32deoxycholicacid[NHCSNH-4-ph-SO3Na]63”, the concentration giving a half-maximal response (EC50) in the experiment on Adeno-1 [6] was 10 µg/mL; with Adeno-1 [5] it was 20 µg/mL.

Consider `Nc1ccn(C[C@@H](CO)OCP(=O)(O)O)c(=O)n1` [cidofovir], for which the “Percent reduction of adenoviral replication” value (“Percent reduction” below) in [7] (cidofovir 0.02 μg/mL) is listed as 0.00%; in [7] (cidofovir 0.2 μg/mL), 57.83%; in [7] (cidofovir 2 μg/mL) it was 99.99%; in experiment [7] (cidofovir 20 μg/mL), greater than 99.99%; in experiment [8] (cidofovir 0.02 μg/mL) it was 0.00%; in experiment [8] (cidofovir 0.2 μg/mL) it was 0.00%. Also, the “Percent reduction” value in experiment [8] (cidofovir 2 μg/mL) is 43.77%; in experiment [8] (cidofovir 20 μg/mL), 94.38%; in experiment [9] (cidofovir 0.02 μg/mL), 68.38%; in [9] (cidofovir 0.2 μg/mL) it was 82.22%; in experiment [9] (cidofovir 2 μg/mL), 86.66%; in experiment [9] (cidofovir 20 μg/mL) it was 90.00%. The “Percent reduction” value in experiment [10] (cidofovir 0.02 μg/mL) came out at 90.00%; in experiment [10] (cidofovir 0.2 μg/mL), 98.22%; in experiment [10] (cidofovir 2 μg/mL), 98.67%; in experiment [10] (cidofovir 20 μg/mL) it was 99.00%. For the same compound, the IC50 was 0.112 µM in experiment [7] (unidentified adenovirus, Adeno-37, estimated, molar basis (279 g/mol)); 52.4 µM in experiment [8] (unidentified adenovirus, Adeno-19, estimated, molar basis (279 g/mol)); 0.559 µM in experiment [9] (unidentified adenovirus, Adeno-5, estimated, molar basis (279 g/mol)); 0.112 µM in experiment [10] (unidentified adenovirus, Adeno-8, estimated, molar basis (279 g/mol)). For the same compound, the “% Ad5 -Positive cultures” value in the experiment on Ad5 McEwen (Day 0 (before treatment)) stood at 100%; in the experiment with Ad5 McEwen (Day 1), 100%; with Ad5 McEwen (Day 3), 100%; in the experiment on Ad5 McEwen (Day 4), 75%.

Consider `Cc1ncc([N+](=O)[O-])n1CCO` [Metronidazole], for which the MIC is greater than 128 µg/mL in experiment [1] (setting [11]); 4 µg/mL (≈ 23.4 µM) in experiment [1] (setting [12]); greater than 128 µg/mL in experiment [2] (ATCC35241, read-out: MIC after serial passage); 8 µg/mL (≈ 46.7 µM) in [2] (ATCC35241, read-out: MIC at baseline). Besides, the figures for the “Fold increase of MIC” value in experiment [1] (by passage 7) and in experiment [2] (by passage 5) were greater than 64 fold and greater than 16 fold, respectively.

Usually MIC stands for the lowest concentration found to suppress growth. A word on the EC50: it is the concentration giving half of the maximal effect. Low values mean greater potency, high ones weaker potency. As a reminder, the IC50 is the concentration needed to halve the response being measured.
